Each structure is given as a SMILES string.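 96-well plates; 48 h exposure; 5 concentrations. Endpoints by linear interpolation between flanking doses. Not reached: highest tested concentration assigned. GI50 = concentration required for 50% inhibition of growth. The concentration for full growth arrest is given as TGI.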

Broadly, the GI50 is the concentration that inhibits growth by half. One may read the TGI as the concentration giving total growth inhibition. Low values mean more potent growth arrest, high ones less potent growth arrest.

Some test systems named below: SNB-75 CNS; CCRF-CEM leukemia; OVCAR-3 ovarian; HL-60(TB) leukemia; OVCAR-5 ovarian; HCT-116 colon; OVCAR-4 ovarian; NCI-H522 lung; UO-31 renal; SR leukemia.
Common to all, as to assay: DTP human tumour cell line panel, 48 h

As to `COc1cnc2c(c1)C(=O)c1c-2n(CCCN2CCN(C)CC2)c(=O)c2cc(Cl)ccc12`, the GI50 in the test with SNB-75 CNS was 0.932 µM; in the test with CCRF-CEM leukemia, 0.527 µM; in the test with OVCAR-3 ovarian it was 15.1 µM; in the test with HL-60(TB) leukemia, 18 µM; in the test on OVCAR-5 ovarian it was 3.56 µM; with HCT-116 colon, 0.982 µM. In addition, the GI50 in the test with OVCAR-4 ovarian was 2.19 µM; with NCI-H522 lung it was 6.32 µM; in the test with UO-31 renal, 3.74 µM; in the test with SR leukemia it was 0.584 µM. The TGI is 17.6 µM in the test on SNB-75 CNS; 20.1 µM with CCRF-CEM leukemia; 29.3 µM with OVCAR-3 ovarian; 42.4 µM in the test on HL-60(TB) leukemia; 13.3 µM with OVCAR-5 ovarian; more than 100 µM in the test on HCT-116 colon. Besides, the TGI turned out to be 18.1 µM in the test on OVCAR-4 ovarian, 52.1 µM with NCI-H522 lung, 22.8 µM in the test with UO-31 renal and 27.3 µM with SR leukemia.
For `CCCC(=O)NNc1[nH]c(-c2ccc(OC)cc2)cc1C(=O)OCC`, the GI50 was 15.4 µM with SNB-75 CNS; 2.82 µM in the test on CCRF-CEM leukemia; 15.5 µM in the test with OVCAR-3 ovarian; 3.1 µM in the test with HL-60(TB) leukemia; 23.7 µM with OVCAR-5 ovarian; 37.2 µM in the test on HCT-116 colon. The GI50 in the test with OVCAR-4 ovarian is 17.1 µM; in the test with NCI-H522 lung, 24 µM; in the test on UO-31 renal, 19.9 µM; with SR leukemia, 28.3 µM. Also, the TGI with SNB-75 CNS was 29.4 µM; in the test on CCRF-CEM leukemia, more than 100 µM; with OVCAR-3 ovarian, 31.1 µM; with HL-60(TB) leukemia, 93.2 µM; with OVCAR-5 ovarian, 44.4 µM; in the test on HCT-116 colon, more than 100 µM. Further, the TGI in the test with OVCAR-4 ovarian was 32.3 µM; with NCI-H522 lung, 50 µM; in the test on UO-31 renal it was 37.8 µM; in the test on SR leukemia, more than 100 µM.
As to `CCC(=C(c1ccc(OCc2ccccc2)cc1)c1ccc(OCc2ccccc2)cc1)c1ccc(OC)cc1`, the total growth inhibition concentration (TGI) in the test on SNB-75 CNS, in the test on CCRF-CEM leukemia, in the test on OVCAR-3 ovarian, in the test with HL-60(TB) leukemia, in the test with OVCAR-5 ovarian and in the test with HCT-116 colon was more than 100 µM in each case. Further, the TGI with OVCAR-4 ovarian, with NCI-H522 lung, in the test with UO-31 renal and in the test on SR leukemia was more than 100 µM each time.
For the compound `CCOC(=O)C1=C(C)N(NC(=O)c2ccccc2)C2(O)CCCC12C(=O)OCC` (stereo not drawn), the TGI with SNB-75 CNS, in the test with OVCAR-3 ovarian, in the test with HL-60(TB) leukemia, in the test on OVCAR-5 ovarian, with HCT-116 colon and in the test with OVCAR-4 ovarian was more than 100 µM throughout. Moreover, the TGI in the test with NCI-H522 lung, in the test with UO-31 renal and in the test with SR leukemia was more than 100 µM each time.
Turning to `COc1cccc2c1c1nc3cc(C)c(C)cc3nc1n2CCN(C)C`, the GI50 with SNB-75 CNS is 1.1 µM; with CCRF-CEM leukemia, 1.81 µM; in the test on OVCAR-3 ovarian, 2.22 µM; in the test on HL-60(TB) leukemia, 2.09 µM; with OVCAR-5 ovarian, 2.4 µM; in the test with HCT-116 colon, 0.426 µM. Further, the GI50 was 2.06 µM in the test on OVCAR-4 ovarian, 2.39 µM with NCI-H522 lung, 0.337 µM with UO-31 renal and 0.452 µM in the test on SR leukemia. Besides, the TGI in the test on SNB-75 CNS is 5.56 µM; in the test on CCRF-CEM leukemia, 7.3 µM; with HL-60(TB) leukemia it was 6.57 µM; with OVCAR-5 ovarian, 9.48 µM; with HCT-116 colon, 10.3 µM; with OVCAR-4 ovarian it was 8.6 µM. Further, the concentration for total growth inhibition (TGI) in the test with NCI-H522 lung was 8.65 µM; with UO-31 renal, 2.37 µM; in the test on SR leukemia, 8.7 µM.
Turning to `CC(C)=CCC/C(C)=C/CC/C(=C/COP(=O)(OCc1ccc([N+](=O)[O-])o1)N(C)CCCCCl)C(C)(C)C` (stereo not drawn), the GI50 in the test with SNB-75 CNS was 15.6 µM; in the test on CCRF-CEM leukemia it was 0.0571 µM; in the test on OVCAR-3 ovarian, 1.94 µM; in the test on HL-60(TB) leukemia it was 4.18 µM; with OVCAR-5 ovarian, 16.2 µM; in the test on HCT-116 colon, 2.04 µM. The GI50 in the test on OVCAR-4 ovarian is 11.8 µM; in the test on NCI-H522 lung it was 2.66 µM; in the test with UO-31 renal, more than 23.3 µM; in the test with SR leukemia, 0.128 µM. Besides, the TGI was 40 µM in the test on SNB-75 CNS; 27.4 µM in the test with CCRF-CEM leukemia; 3.66 µM in the test on OVCAR-3 ovarian; more than 100 µM with HL-60(TB) leukemia; 32.8 µM with OVCAR-5 ovarian; 11.8 µM in the test with HCT-116 colon. Also, the TGI in the test on OVCAR-4 ovarian was 33.1 µM; in the test with NCI-H522 lung it was 10 µM; in the test with UO-31 renal, more than 44.1 µM; with SR leukemia, more than 100 µM.
As for `COc1ccc(F)cc1C(=O)c1cnc(NC2CCN(S(C)(=O)=O)CC2)nc1N`, the GI50 with SNB-75 CNS was 3.97 µM; with CCRF-CEM leukemia, 2.63 µM; with OVCAR-3 ovarian, 4.15 µM; in the test with HL-60(TB) leukemia it was 1.66 µM; with OVCAR-5 ovarian, 1.4 µM; with HCT-116 colon it was 1.21 µM. Also, the GI50 with OVCAR-4 ovarian is 5.7 µM; in the test on NCI-H522 lung, 4.3 µM; in the test on UO-31 renal, 3.69 µM; in the test on SR leukemia it was 0.885 µM. The TGI in the test with SNB-75 CNS was 10.2 µM; in the test with CCRF-CEM leukemia it was more than 21.3 µM; in the test with OVCAR-3 ovarian it was 14.6 µM; in the test with HL-60(TB) leukemia, 18.1 µM; in the test on OVCAR-5 ovarian it was more than 14.7 µM; in the test with HCT-116 colon, more than 25 µM. Besides, the TGI in the test on OVCAR-4 ovarian was more than 21.4 µM; with NCI-H522 lung, 14.7 µM; in the test on UO-31 renal, more than 18.6 µM; in the test with SR leukemia, more than 14.8 µM.
In the case of `CO[C@H](C(=O)N[C@@H](CCCCNC(=O)OCc1ccccc1)C(=O)OC(C)(C)C)[C@@H]1Cc2cc3cc(OC4CC(OC5CC(O)C(O)C(C)O5)C(O)C(C)O4)c(C)c(O)c3c(O)c2C(=O)[C@H]1OC1CC(OC2CC(OC3CC(C)(O)C(O)C(C)O3)C(O)C(C)O2)C(O)C(C)O1` (stereo partly drawn), the GI50 was 0.541 µM in the test with SNB-75 CNS; 0.404 µM with CCRF-CEM leukemia; 1.39 µM in the test with OVCAR-3 ovarian; 0.971 µM with HL-60(TB) leukemia; 0.976 µM in the test on OVCAR-5 ovarian; 0.397 µM in the test on HCT-116 colon. In addition, the GI50 with OVCAR-4 ovarian is 3 µM; with NCI-H522 lung it was 0.687 µM; in the test on UO-31 renal it was 1.57 µM; in the test on SR leukemia, 0.319 µM. For the same compound, the concentration for total growth inhibition (TGI) was 1.97 µM with SNB-75 CNS; 5.07 µM in the test with CCRF-CEM leukemia; more than 10 µM in the test with OVCAR-3 ovarian; 5.92 µM with HL-60(TB) leukemia; 2.82 µM in the test with OVCAR-5 ovarian; 1.63 µM in the test on HCT-116 colon. For the same compound, the TGI in the test on OVCAR-4 ovarian was more than 10 µM; in the test with NCI-H522 lung it was 3.15 µM; in the test on UO-31 renal, 8.18 µM; in the test on SR leukemia, more than 10 µM.

The values above are taken from PubChem BioAssay (NCI).
